Here are results for six molecules from patent US5889007A, “10, 11-methanodibenzosuberane derivatives” (priority 1995, dated 1999).

For data set [1], the system named is multidrug resistance. Conditions: compared with MS-073; cited from earlier work.
For data set [2] the following is noted: cited from earlier work.
The next data set concerns drug-resistant malaria. Conditions: in vitro; cited from earlier work.
The nature of data set [3]: Determination of Stability at Acid pH (HPLC, 0.01N HCl). It is filed as physicochemical. Conditions: 0.01N HCl (pH 2), 37° C. How it is done: Determination of Stability at Acid pH
Test compounds (15 μg) were dissolved in 3 ml of 0.01N HCl (pH 2) and incubated at 37° C. […] The test compounds and their degradation products were monitored by UV absorption at 240 nm. Disappearance of the parent compound was expressed as a percent peak height relative to time zero, from which t1/2 values were determined graphically, as follows.

For data set [4] the following is noted: cited from earlier work. The source holds these as a separate data set.
The test system of data set [5] is multidrug resistance. Conditions: anticancer drug potentiator; cited from earlier work.

Read-outs that look alike come from different tables or passages of the source.

Take `O=C(C(c1ccccc1)c1ccccc1)N1CCN(CC(O)COc2cccc3ncccc23)CC1` (stereo not shown) [MS-209]: the effective doses result in the data set with multidrug resistance [1] is “higher effective doses”. For the same molecule, the oral bioavailability result in data set [2] (in vivo, po) is “better stability and oral bioavailability”.
`COc1ccc(CCN(C)CCCC(C#N)(c2ccc(OC)c(OC)c2)C(C)C)cc1OC` (stereo not shown) [verapamil]: the “effect in treating drug-resistant malaria” value in the data set with drug-resistant malaria is given as “effective in vitro”.
Regarding `OC(COc1cccc2ncccc12)CN1CCN(C2c3ccccc3C3C(Cl)C3c3ccccc32)CC1` [(2R,S)-anti-5-{3-[4-(10,11-chloromethanodibenzosuber-5-yl)piperazine-1-yl]-2-hydroxypropoxy}quinoline], the t1/2 in data set [3] was more than 72 h.
In data set [3], `OC(COc1cccc2ncccc12)CN1CCN([C@@H]2c3ccccc3[C@H]3C[C@H]3c3ccccc32)CC1` (relative stereo) [(2R,S)-anti-5-{3-[4-(10,11-methanodibenzosuber-5-yl)piperazin-1-yl]-2-hydroxypropoxy}quinoline] gave a half-life of 2.5 h.
The same measure, in the same setting: under `OC(COc1cccc2ncccc12)CN1CCN(C2c3ccccc3C3C(c4ccccc42)C3(F)F)CC1` (racemic) [(2R,S)-5-{3-[4-(10,11-difluoromethanodibenzosuber-5-yl)piperazine-1-yl]-2-hydroxypropoxy}quinoline] stands more than 72 h.
For the molecule `OC(COc1cccc2ncccc12)CN1CCN(C2c3ccccc3CCc3ccccc32)CC1` (stereo not shown) [MS-073], the half-life in data set [3] turned out to be 0.25 h. In data set [4], the stability in solution result was “instability problems in solution”. Moreover, the “activity in in vitro testing” value in the data set with multidrug resistance [5] was “highly active”. Moreover, the oral bioavailability result in data set [2] (oral) was “poor oral bioavailability”.
